Results: patent US12161630B2, “Methods to control infection using new generation small molecule growth inhibitors” (priority 2017, dated 2024)
Converted amounts (≈) assume the structure as drawn.

Columns and labels:
[1] = test system: Galleria mellonella larvae; assay: Toxicity on Galleria mellonella larva; format: in vivo; settings: over 72 HPI, single treatment with 12.5 μg per larva
Description: Toxicity of the selected four SMs on Galleria mellonella larva: Galleria mellonella larvae (fifth instar stage) were incubated for 12 hrs at 37° C. in the dark. After incubation, only larvae with a white phenotype and a body weight ranging between 225 mg to 275 mg were selected for the injection. Fifteen larvae per group were inoculated in one of the last pro-leg with 12.5 μg of SMs (8.5 μl) using a PB600-1 repeating dispenser (Hamilton, Reno, NV) attached to 300 μl insulin syringe, 31-gauge, 8 mm needle length (ReliOn®, Bentonville, AR). SMs were diluted into a buffer mix (30% DMSO plus 10 mM MgSO4). Larvae were placed inside a plastic petri dish and incubated for 3 days in the dark at 37° C. Every 12 hrs of interval, the larva survival was monitored. Non-treated larvae, larvae treated with the buffer mix, and larvae treated with 12.5 μg of chloramphenicol were used as control. At least two independent experiments were conducted.

[2] = test system: S. typhimurium cell membrane and nucleic acids; assay: Confocal microscopy of SM-challenged S. typhimurium (FM4-64, SYTO9); format: cell-based, Salmonella enterica subsp. Enterica serotype Typhimurium; settings: 5×MBC of SMs for 3 hrs; compared to DMSO control
From the text: FIG. 13. Confocal and scanning electron microscopy (SEM) analyses of Salmonella enterica subsp. Enterica serotype Typhimurium after challenge with five times the minimal bactericidal concentration of small molecules (5×MBC of SMs) for 3 hrs. (A-O) Confocal microscopy: (A-E) S. typhimurium cell membrane stained with FM4-64; (F-J) S. typhimurium nucleic acids stained with SYTO9; (K-O) Merged pictures of the FM4-64 and SYTO9 staining. (P-S) SEM: (P) 1% dimethyl sulfoxide (DMSO) treated Salmonella; (Q) SM1 treated Salmonella; (R) SM4 treated Salmonella; (S) SM5 treated Salmonella; Bar: 1 μm.

Salmonella Javiana = assay: MIC and MBC dose-response, serotype Javiana; format: cell-based, Salmonella enterica; settings: MIC identical to MBC
Description: An overnight Salmonella suspension was normalized at 0.05 OD600 (approximately 3.5×10^7 CFU/ml) with an adjusted M9 minimal broth medium (12.7 mM Na2HPO4 7H2O; 22 mM KH2PO4; 18.7 mM NH4Cl; 2 mM MgSO4; 0.1 mM CaCl2; 0.4% glucose; 0.05% casamino acids). 100 μL of the suspension plus 2 μl of SMs (200 μM) were transferred into each well of a sterile, non-treated, flat bottom 96-well plate. Bacteria alone (negative control, NC), 2% DMSO plus bacteria (DMSO control), 20 μg/ml chloramphenicol or 50 μg/ml kanamycin plus bacteria (positive controls, PC), and M9 medium only were used as control. Plates were incubated in a Sunrise™ Tecan kinetic microplate reader for 12 hrs at 37° C. and the optical density (OD) was measure at 600 nm as described above. Percentage of inhibition=(OD600 SM−OD600 NC)/(OD600 NC)×100. […] Cultures from wells showing no turbidimetric increase were transferred onto a XLT4 agar plate. Plates were incubated at 37° C. for 36 hrs.
Screens were performed as described in the primary screen. The lowest SM concentration with a static effect was considered as the minimal inhibitory concentration (MIC) and the lowest SM concentration with a cidal effect was considered as the minimal bactericidal concentration (MBC).

[3] = test system: S. typhimurium cell membrane; assay: Leakage of 260 nm-absorbing material after treatment with lethal dose of SMs; format: cell-based; settings: 1 hr, compared to 1% DMSO control
Description: To further support the observation obtained with confocal microscopy, the same samples were analyzed using scanning electron microscopy (SEM; FIG. 13P-S). […] Smaller outer membrane vesicles of approximately 20 to 70 nm were also observed covering the surface of the bacteria. […] These conclusions were further supported by measuring the crystal violet uptake and leakage of materials assessed at 260 nm after 1 hr of treatment with a lethal dose of SMs.

S. typhimurium WT = assay: High-throughput primary screen for S. typhimurium growth inhibitors at 200 μM; format: cell-based, Salmonella enterica subsp. enterica serovar Typhimurium LT2; settings: adjusted M9 minimal broth, 12 hrs, 37° C., bactericidal = 100% growth inhibition and no growth on XLT4 agar, bacteriostatic = 100% growth inhibition but growth on XLT4 agar
Description: Identification of S. typhimurium growth inhibitors: The 4182 small molecules (SMs) were screened at 200 μM against S. typhimurium WT using HTS assay in a 96-well plate format. An overnight Salmonella suspension was normalized at 0.05 OD600 (approximately 3.5×10^7 CFU/ml) with an adjusted M9 minimal broth medium (12.7 mM Na2HPO4 7H2O; 22 mM KH2PO4; 18.7 mM NH4Cl; 2 mM MgSO4; 0.1 mM CaCl2; 0.4% glucose; 0.05% casamino acids). 100 μL of the suspension plus 2 μl of SMs (200 μM) were transferred into each well of a sterile, non-treated, flat bottom 96-well plate. Bacteria alone (negative control, NC), 2% DMSO plus bacteria (DMSO control), 20 μg/ml chloramphenicol or 50 μg/ml kanamycin plus bacteria (positive controls, PC), and M9 medium only were used as control. Plates were incubated in a Sunrise™ Tecan kinetic microplate reader for 12 hrs at 37° C. and the optical density (OD) was measure at 600 nm as described above. Percentage of inhibition=[…]. SMs were identified as growth inhibitors if their inhibition value after incubation was above 20% (value representing the inhibition level monitored with the DMSO controls). Cultures from wells showing no turbidimetric increase were transferred onto a XLT4 agar plate. Plates were incubated at 37° C. for 36 hrs.

| Structure (SMILES) | lethal effect in G. mellonella larvae [1] | FM4-64 cell membrane staining phenotype [2] | MIC/MBC (Salmonella Javiana) [µM] | increase in 260 nm-absorbing material [3] [fold] | Effect on S. Typhimurium at 200 μM (S. typhimurium WT) |
| --- | --- | --- | --- | --- | --- |
| CC1CCC(C(C)C)C(OC(=O)Cn2c[n+](CC(=O)OC3CC(C)CCC3C(C)C)c3ccccc32)C1.[Cl-] (centres unmarked) [SM1, 1,3-bis{2-[(2-isopropyl-5-methylcyclohexyl)oxy]-2-oxoethyl}-1H-3,1-benzimidazol-3-ium chloride] | chronic death of the larvae over time | No signal was detected | 100 | 2.18 | Bactericidal |
| CCCCCCCCCCCCCCCC[n+]1ccn(CC#N)c1.[Cl-] [SM3, 1-(cyanomethyl)-3-hexadecyl-1H-imidazol-3-ium chloride] | killed only a few larvae | No signal was detected | 25 | 7.17 | Bactericidal |
| CCOc1cc(/C=N/N=C(N)N)ccc1OCc1ccc(Cl)cc1 [SM5, N″-{4-[(4-chlorobenzyl)oxy]-3-ethoxybenzylidene}carbonohydrazonic diamide] | killed only a few larvae | stained cell membrane; however, a bright red spot was detected within every bacterium | 50 (≈ 17.3 µg/mL) | 5.25 | Bactericidal |
| CCCCCCCCCCCCCCCCn1c[n+](C)c2ccccc21.[Br-] [SM4, 1-hexadecyl-3-methyl-1H-3,1-benzimidazol-3-ium bromide] | no lethal effect | No signal was detected | 10 | 15.95 | Bactericidal |
